ChEMBL document CHEMBL3994621, “Curculactones A and B induced the differentiation of C3H10T1/2 and MC3T3-E1 cells to osteoblasts” (Bioorg Med Chem Lett, 2017)
Activity calls are given as the source filed them. The rule behind the calls is not given here.

Assays:
C3H 10T1/2 [1] = experiment: Cytotoxicity against mouse C3H10T1/2 cells assessed as reduction in cell viability up to 5 uM after 48 hrs by MTT assay; type: cell-based; settings: c3h 10t1/2, 48 h
C3H 10T1/2 [2] = experiment: Induction of osteoblast differentiation in mouse C3H10T1/2 cells assessed as increase in Dlx5 mRNA expression at 5 uM after 4 days by RT-PCR method; type: functional, cell-based
C3H 10T1/2 [3] = experiment: Induction of osteoblast differentiation in mouse C3H10T1/2 cells assessed as increase in Runx2 mRNA expression at 5 uM after 4 days by RT-PCR method; type: functional, cell-based
C3H 10T1/2 [4] = experiment: Induction of osteoblast differentiation in mouse C3H10T1/2 cells assessed as increase in ALP mRNA expression at 5 uM after 4 days by RT-PCR method; type: functional, cell-based
C3H 10T1/2 [5] = experiment: Induction of osteoblast differentiation in mouse C3H10T1/2 cells assessed as increase in osteocalcin mRNA expression at 5 uM after 4 days by RT-PCR method; type: functional, cell-based
MC3T3-E1 [6] = experiment: Induction of osteoblast differentiation in […] MC3T3-E1 cells assessed as increase in Dlx5 mRNA expression at 5 uM after 4 days by RT-PCR method; type: functional, cell-based
MC3T3-E1 [7] = experiment: Induction of osteoblast differentiation in […] MC3T3-E1 cells assessed as increase in Runx2 mRNA expression at 5 uM after 4 days by RT-PCR method; type: functional, cell-based
MC3T3-E1 [8] = experiment: Induction of osteoblast differentiation in […] MC3T3-E1 cells assessed as increase in ALP mRNA expression at 5 uM after 4 days by RT-PCR method; type: functional, cell-based
MC3T3-E1 [9] = experiment: Induction of osteoblast differentiation in […] MC3T3-E1 cells assessed as increase in osteocalcin mRNA expression at 5 uM after 4 days by RT-PCR method; type: functional, cell-based
MC3T3-E1 [10] = experiment: Induction of osteoblast differentiation in […] MC3T3-E1 cells assessed as increase in ALP activity at 5 uM after 4 days using BCIP/NBT liquid substrate; type: functional, cell-based
MC3T3-E1 [11] = experiment: Induction of mineralization in […] MC3T3-E1 cells at 5 uM after 14 days by alizarin red S staining based assay; type: functional, cell-based
[12] = Solubility of the compound in DMSO; type: physicochemical

Row | solubility [12] | Structure (SMILES) | Activity (C3H 10T1/2 [1]) | Activity (C3H 10T1/2 [2]) | Activity (C3H 10T1/2 [3]) | Activity (C3H 10T1/2 [4]) | Activity (C3H 10T1/2 [5]) | Activity (MC3T3-E1 [6]) | Activity (MC3T3-E1 [7]) | Activity (MC3T3-E1 [8]) | Activity (MC3T3-E1 [9]) | Activity (MC3T3-E1 [10]) | Activity (MC3T3-E1 [11])
1 | Soluble | COc1cc(O)cc([C@@H]2CC(=O)O[C@H]2C)c1 [CURCULACTONE B] | Non-Toxic | Active | Active | Active | Active | Active | Active | Active | Active | Active | Active
2 | Soluble | COc1cc([C@H]2CC(=O)O[C@H]2C)ccc1O [CURCULACTONE A] | Non-Toxic | Active | Active | Active | Active | Active | Active | Active | Active | Active | Active
